# Test results published in patent US8592486B2, “Compounds for inflammation and immune-related uses” (Synta Pharmaceuticals Corp., priority 2005, dated 2013).
# pIC50: −log10 of the molar value. Counter-ions that a name gives are not always drawn.
# Test system: IL-2 production
# Test: Inhibition of IL-2 production in PHA-activated Jurkat cells (ELISA)
# Assay type: cell-based, human
# Conditions: Homo sapiens, Jurkat, 20 h, Jurkat cells, PHA 2.5 μg/mL, 20 hours, IL-2 ELISA; read-out: IC50 (inhibition of IL-2 production)
# Method: Jurkat cells were placed in a 96 well plate (0.5 million cells per well in 1% FBS medium) then a test compound of this invention was added at different concentrations. After 10 minutes, the cells were activated with PHA (final concentration 2.5 μg/mL) and incubated for 20 hours at 37° C. under CO2. The final volume was 200 μL. Following incubation, the cells were centrifuged and the supernatants collected and stored at −70° C. prior to assaying for IL-2 production. A commercial ELISA kit (IL-2 Eli-pair, Diaclone Research, Besancon, France) was used to detect production of IL-2, from which dose response curves were obtained. The IC50 value was calculated as the concentration at which 50% of maximum IL-2 production after stimulation was inhibited versus a non-stimulation control.
row,Compound,pIC50
1,"Cc1ccc(-c2nccs2)cc1-c1ccc(NC(=O)c2c(F)cccc2F)cc1 [Compound 15, 2,6-Difluoro-N-(2′-methyl-5′-thiazol-2-yl-biphenyl-4-yl)-benzamide]",8.70
2,"Cc1cnccc1C(=O)Nc1ccc(-c2cc(-c3ncco3)ccc2Cl)cc1 [Compound 17, 3-Methyl-N-(2′-chloro-5′-oxazol-2-yl-biphenyl-4-yl)-isonicotin-amide, hydrochloride]",8.15
3,"COc1ncc(Cl)cc1-c1ccc(NC(=O)c2ccncc2C)cc1 [Compound 18, 3-Methyl-N-[4-(5-chloro-2-methoxy-pyridin-3-yl)-phenyl]-isonicotinamide]",8.05
4,"Cc1ccc(-c2cccnc2)cc1-c1ccc(NC(=O)c2snnc2C)cc1 [Compound 21, 4-Methyl-[1,2,3]thiadazole-5-carboxylic acid [2′-methyl-5′-(pyridin-3-yl)-biphenyl-4-yl]-amide]",8.22
5,"COc1ccc(-c2cnco2)cc1-c1ccc(NC(=O)c2snnc2C)cc1 [Compound 25, 4-Methyl-[1,2,3]thiadiazole-5-carboxylic acid [2′-methoxy-5′-(oxazol-5-yl)-biphenyl-4-yl]-amide]",8.52
6,"Cc1cnccc1C(=O)Nc1ccc(-c2cc(-c3cnco3)ccc2C)cc1 [Compound 26, 3-Methyl-N-[5′-(oxazol-5-yl)-2′-methyl-biphenyl-4-yl]-isonicotinamide]",8.30
7,COc1ccc(-c2cnco2)cc1-c1ccc(NC(=O)c2c(F)cccc2F)cc1 [Compound 27],8.40
8,"Cc1ccc(-c2nccs2)cc1-c1ccc(NC(=O)c2c(F)cncc2F)cc1 [Compound 28, 3,5-Difluoro-N-[5′-(thiazol-2-yl)-2′-methyl-biphenyl-4-yl]-isonicotinamide]",8.15
9,O=C(Nc1ccc(-c2cc(-c3ncco3)ccc2Cl)cc1)c1c(F)cccc1F [Compound 31],8.22
10,"Cc1cnccc1C(=O)Nc1ccc(-c2cc(-c3ccno3)ccc2C)cc1 [Compound 32, 3-Methyl-N-[5′-(isoxazol-5-yl)-2′-methyl-biphenyl-4-yl]-isonicotinamide]",8.40
11,"Cc1cc(-c2ccc(C)c(-c3ccc(NC(=O)c4c(F)cccc4F)cc3)c2)on1 [Compound 35, 2,6-Difluoro-N-[2′-methyl-5′-(3-methyl-isoxazole-5-yl)-biphenyl-4-yl]-benzamide]",8.70
12,"Cc1cc(-c2ccc(C)c(-c3ccc(NC(=O)c4c(F)cccc4F)cc3)c2)[nH]n1 [Compound 37, 2,6-Difluoro-N-[2′-methyl-5′-(3-methyl-1H-pyrazol-5-yl)-biphenyl-4-yl]-benzamide]",7.96
13,"Cc1csc(-c2ccc(C)c(-c3ccc(NC(=O)c4c(F)cccc4F)cc3)c2)n1 [Compound 38, 2,6-Difluoro-N-[2′-methyl-5′-(4-methyl-thiazol-2-yl)-biphenyl-4-yl]-benzamide]",8.52
14,Cc1ccc(-c2nc(C(F)(F)F)cs2)cc1-c1ccc(NC(=O)c2c(F)cccc2F)cc1 [Compound 39],7.89
15,"Cc1cnccc1C(=O)Nc1ccc(-c2cc(-c3nnn[nH]3)ccc2C)cc1 [Compound 44, 3-Methyl-N-[2′-methyl-5′-(1H-tetrazol-5-yl)-biphenyl-4-yl]-isonicotinamide]",< 6.00
16,"O=C(Nc1ccc(-c2cc(-c3ncco3)ccc2Cl)cc1)c1c(F)cncc1F [Compound 45, 3,5-Difluoro-N-[5′-(oxazol-2-yl)-2′-chloro-biphenyl-4-yl]-isonicotinamide]",7.30
17,"COc1ccc(-c2ccco2)cc1-c1ccc(NC(=O)c2ccncc2C)cc1 [Compound 47, 3-Methyl-N-[2′-methoxy-5′-(furan-2-yl)-biphenyl-4-yl]-isonicotinamide]",7.23
18,"COc1ccc(-c2cccs2)cc1-c1ccc(NC(=O)c2ccncc2C)cc1 [Compound 52, 3-Methyl-N-[5′-(thien-2-yl)-2′-methoxy-biphenyl-4-yl]-isonicotinamide]",7.46

# The remaining lines, values ahead:
row,pIC50,Compound
1,8.52,"Cc1ccc(-c2ncco2)cc1-c1ccc(NC(=O)c2ccncc2F)cc1 [Compound 10, 3-Fluoro-N-(2′-methyl-5′-oxazol-2-yl-biphenyl-4-yl)-isonicotinamide]"
2,8.52,"Cc1ccc(-c2ncco2)cc1-c1ccc(NC(=O)c2c(F)cncc2F)cc1 [Compound 11, 3,5-Difluoro-N-(2′-methyl-5′-oxazol-2-yl-biphenyl-4-yl)-isonicotinamide]"
3,8.22,"COc1ccc(-c2ncco2)cc1-c1ccc(NC(=O)c2c(F)cccc2F)cc1 [Compound 13, 2,6-Difluoro-N-(2′-methoxy-5′-oxazol-2-yl-biphenyl-4-yl)-benzamide]"
4,7.72,"COc1ncc(Cl)cc1-c1ccc(NC(=O)c2ccncc2F)cc1 [Compound 19, 3-Fluoro-N-[4-(5-chloro-2-methoxy-pyridin-3-yl)-phenyl]-isonicotinamide]"
5,8.10,"Cc1cnccc1C(=O)Nc1ccc(-c2cc(-c3cccnc3)ccc2C)cc1 [Compound 20, 3-Methyl-N-[5′-(pyridin-3-yl)-2′-methyl-biphenyl-4-yl]-isonicotinamide]"
6,9.00,"Cc1ccc(-c2cccnc2)cc1-c1ccc(NC(=O)c2c(F)cccc2F)cc1 [Compound 22, 2,6-Difluoro-N-[2′-methyl-5′-(pyridine-3-yl)-biphenyl-4-yl]-benzamide]"
7,8.30,"Cc1ccc(-c2ccccn2)cc1-c1ccc(NC(=O)c2c(F)cccc2F)cc1 [Compound 23, 2,6-Difluoro-N-[2′-methyl-5′-(pyridine-2-yl)-biphenyl-4-yl]-benzamide]"
8,7.82,"Cc1ccc(-c2ccccn2)cc1-c1ccc(NC(=O)c2snnc2C)cc1 [Compound 24, 4-Methyl-[1,2,3]thiadazole-5-carboxylic acid [2′-methyl-5′-(pyridin-2-yl)-biphenyl-4-yl]-amide]"
9,8.52,"Cc1ccc(-c2ccncc2)cc1-c1ccc(NC(=O)c2c(F)cccc2F)cc1 [Compound 30, 2,6-Difluoro-N-[2′-methyl-5′-(pyridine-4-yl)-biphenyl-4-yl]-benzamide]"
10,8.40,"Cc1ccc(-c2ccno2)cc1-c1ccc(NC(=O)c2snnc2C)cc1 [Compound 33, 4-Methyl-[1,2,3]thiadazole-5-carboxylic acid [2′-methyl-5′-(isoxazol-5-yl)-biphenyl-4-yl]-amide]"
11,8.40,"Cc1cc(-c2ccc(C)c(-c3ccc(NC(=O)c4ccncc4C)cc3)c2)on1 [Compound 36, 3-Methyl-N-[5′-(3-methyl-isoxazol-5-yl)-2′-methyl-biphenyl-4-yl]-isonicotinamide]"
12,7.96,"Cc1csc(-c2ccc(C)c(-c3ccc(NC(=O)c4ccncc4C)cc3)c2)n1 [Compound 40, 3-Methyl-N-[5′-(4-methyl-thiazol-2-yl)-2′-methyl-biphenyl-4-yl]-isonicotinamide]"
13,7.74,"Cc1ccc(-c2ccc[nH]2)cc1-c1ccc(NC(=O)c2c(F)cccc2F)cc1 [Compound 41, 2,6-Difluoro-N-[2′-methyl-5′-(1H-pyrrol-2-yl)-biphenyl-4-yl]-benzamide]"
14,< 6.00,"Cc1ccc(-c2noc(=O)[nH]2)cc1-c1ccc(NC(=O)c2c(F)cccc2F)cc1 [Compound 42, 2,6-Difluoro-N-[2′-methyl-5′-(5-oxo-4,5-dihydro-[1,2,4]-oxadiazol-3-yl)-biphenyl-4-yl]-benzamide]"
15,7.59,"Cc1ccc(N2CCOCC2)cc1-c1ccc(NC(=O)c2c(F)cccc2F)cc1 [Compound 43, 2,6-Difluoro-N-[2′-methyl-5′-(morpholino-4-yl)-biphenyl-4-yl]-benzamide]"
16,6.49,"Cc1cnccc1C(=O)Nc1ccc(-c2cc(-c3ncco3)ccc2N(C)C)cc1 [Compound 48, 3-Methyl-N-[5′-(oxazol-2-yl)-2′-(N,N-dimethylamino)-biphenyl-4-yl]-isonicotinamide]"
17,7.92,"Cc1cnccc1C(=O)Nc1ccc(-c2cc(-c3nnnn3C)ccc2C)cc1 [Compound 49, 3-Methyl-N-[2′-methyl-5′-(1-methyl-1H-tetrazol-5-yl)-biphenyl-4-yl]-isonicotinamide]"
18,7.64,"COc1ccc(-c2ncco2)cc1-c1ccc(NC(=O)c2ccncc2C)cc1 [Compound 50, 3-Methyl-N-[5′-(oxazol-2-yl)-2′-methoxy-biphenyl-4-yl]-isonicotinamide]"
19,7.96,"COc1ccc(-c2ncco2)cc1-c1ccc(NC(=O)c2c(F)cncc2F)cc1 [Compound 51, 3,5-Difluoro-N-[5′-(oxazol-2-yl)-2′-methoxy-biphenyl-4-yl]-isonicotinamide]"

# Same assay, conditions: Homo sapiens; Jurkat cells, PHA 2.5 μg/mL, 20 hours, IL-2 ELISA; read-out: IC50 (inhibition of IL-2 production)
row,Compound,pIC50
1,"Cc1cnccc1C(=O)Nc1ccc(-c2cc(-c3ncco3)ccc2C)cc1 [Compound 7, 3-Methyl-N-(2′-methyl-5′-oxazol-2-yl-biphenyl-4-yl)-isonicotinamide, hydrochloride]",8.10
2,"Cc1cnccc1C(=O)Nc1ccc(-c2cc(-c3cnco3)ccc2C)cc1 [Compound 29, 3-Methyl-N-[5′-(oxazol-5-yl)-2′-methyl-biphenyl-4-yl]-isonicotinamide, HCl salt]",8.05
3,"Cc1cnccc1C(=O)Nc1ccc(-c2cc(-c3ccno3)ccc2C)cc1 [Compound 34, 3-Methyl-N-[5′-(isoxazol-5-yl)-2′-methyl-biphenyl-4-yl]-isonicotinamide, HCl salt]",7.96

# Same assay, conditions: Jurkat cells, PHA 2.5 μg/mL, 20 hours, IL-2 ELISA; read-out: IC50 (inhibition of IL-2 production)
row,pIC50,Compound
1,8.00,"Cc1cnccc1C(=O)Nc1ccc(-c2cc(-c3nccs3)ccc2C)cc1 [Compound 14, 3-Methyl-N-(2′-methyl-5′-thiazol-2-yl-biphenyl-4-yl)-isonicotin-amide]"
